According to patent EP4806891A1 (Kangbaida (Sichuan) Biotechnology Co., Ltd., priority 2023, dated 2025):

Biological target: T1, HEK-Blue-hTLR9 cells (Homo sapiens, UniProt Q9NR96)
T1 construct: expressed in transfected cells; host or cells: HEK-Blue-hTLR9 cells (HEK293-derived reporter line)
T1 sequence (Q9NR96 26-1032): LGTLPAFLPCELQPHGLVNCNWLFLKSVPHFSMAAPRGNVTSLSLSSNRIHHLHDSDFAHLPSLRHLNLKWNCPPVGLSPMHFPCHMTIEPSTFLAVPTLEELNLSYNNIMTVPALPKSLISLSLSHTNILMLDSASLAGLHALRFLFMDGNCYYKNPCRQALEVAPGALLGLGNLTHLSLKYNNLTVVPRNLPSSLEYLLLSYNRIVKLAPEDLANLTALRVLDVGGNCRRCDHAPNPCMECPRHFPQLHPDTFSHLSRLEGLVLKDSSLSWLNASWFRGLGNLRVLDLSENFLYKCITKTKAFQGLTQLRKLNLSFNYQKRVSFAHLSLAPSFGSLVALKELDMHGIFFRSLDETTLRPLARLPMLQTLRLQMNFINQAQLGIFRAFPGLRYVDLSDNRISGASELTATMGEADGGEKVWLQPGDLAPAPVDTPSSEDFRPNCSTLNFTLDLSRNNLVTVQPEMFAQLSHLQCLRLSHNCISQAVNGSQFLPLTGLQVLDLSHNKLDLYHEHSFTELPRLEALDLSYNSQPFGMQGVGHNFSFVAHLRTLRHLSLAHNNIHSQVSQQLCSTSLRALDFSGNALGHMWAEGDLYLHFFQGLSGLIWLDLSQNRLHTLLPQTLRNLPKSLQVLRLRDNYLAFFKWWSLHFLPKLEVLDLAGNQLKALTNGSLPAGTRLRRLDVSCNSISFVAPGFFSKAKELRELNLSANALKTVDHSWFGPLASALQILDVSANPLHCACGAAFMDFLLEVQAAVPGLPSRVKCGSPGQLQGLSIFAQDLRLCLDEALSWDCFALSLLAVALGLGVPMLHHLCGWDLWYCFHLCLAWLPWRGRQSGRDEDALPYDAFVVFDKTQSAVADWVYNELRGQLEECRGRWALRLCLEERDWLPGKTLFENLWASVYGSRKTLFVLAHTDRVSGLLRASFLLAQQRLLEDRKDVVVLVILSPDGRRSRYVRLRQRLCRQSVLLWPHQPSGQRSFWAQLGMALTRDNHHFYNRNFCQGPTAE
Assay: HEK-Blue-hTLR9 cell inhibition assay
Type: cell-based
Settings: ODN2006 1 µM, 16 h, OD 620 nm, read-out: TLR9 IC50
Method: HEK-Blue-hTLR7/8/9 cell inhibition assay
1. HEK-Blue-hTLR7/8 cells (1 × 10^4 cells/well) and HEK-Blue-hTLR9 cells (1.5 × 10^4 cells/well) were seeded in a 384-well cell culture plate, with a volume of 30 µL per well. The plate was incubated at 37°C in a 5% CO2 incubator for 4 h. 2. The compound was prepared with DMSO and diluted in DMEM medium to 10 concentrations (1:3 dilution), with final concentrations of 10000, 3333.3, 1111.1, 370.4, 123.5, 41.2, 13.7, 4.6, 1.5, and 0.5 nM; R848 was prepared with DMSO and diluted in DMEM medium, with final concentrations of 0.8 µM (HEK-Blue-hTLR7) and 3 µM (HEK-Blue-hTLR8); ODN2006 was prepared with endotoxin-free water and diluted in DMEM medium, with a final concentration of 1 µM. 3. Cells treated with DMSO were used as the blank control group, while cells treated solely with Resiquimod (R848) were used as the positive control group for HEK-Blue-hTLR7/8, and cells treated solely with ODN2006 were used as the positive control group for HEK-Blue-hTLR9. Cells treated with the test compound together with R848 or ODN2006 were used as the test group. Two parallel wells were set for each group and were placed at 37°C in a 5% CO2 incubator for incubation. 4. After being incubated for 4 h, the 384-well plate of HEK-Blue-hTLR7/8 was taken out from the incubator, and R848 alone or both R848 and the diluted compound were separately added into each well. The plate was placed at 37°C in a 5% CO2 incubator for incubation for 16 h; the 384-well plate of HEK-Blue-hTLR9 was taken out from the incubator, and ODN2006 alone or both ODN2006 and the diluted compound were added separately to each well. The plate was incubated at 37°C in a 5% CO2 incubator for 16 h. 5. After being incubated for 16 h, the 384-well plate was removed from the incubator and centrifuged at 1000 rpm for 1 minute. The optical density value of each well at 620 nm was measured using a multifunctional microplate reader. 6. The cell inhibition rate was calculated as (1-(OD620 test group-OD620 blank group)/(OD620 positive group-OD620 blank group))×100%, and the half maximal inhibitory concentration (IC50) was calculated through curve fitting. Table 1: Activity of the compounds of the present disclosure in HEK-Blue-hTLR7/8/9 cellular assays

N#Cc1ccc(N2C[C@]3(c4nnc(C5CCOCC5)o4)C[C@]3(C(F)(F)F)C2)c2cccnc12 [Compound 12, 5-((1S,5R)-1-(5-(tetrahydro-2H-pyran-4-yl)-1,3,4-oxadiazol-2-yl)-5-(trifluoromethyl)-3-azabicyclo[3.1.0]hexan-3-yl)quinoline-8-carbonitrile] and CN1CC2(CCC(c3nnc([C@]45CN(c6ccc(C#N)c7ncccc67)C[C@@]4(C(F)(F)F)C5)o3)CC2)C1 [Compound 13, 5-((1S,5R)-1-(5-(2-methyl-2-azaspiro[3.5]nonan-7-yl)-1,3,4-oxadiazol-2-yl)-5-(trifluoromethyl)-3-azabicyclo[3.1.0]hexan-3-yl)quinoline-8-carbonitrile] cannot be ordered by IC50: over 10000 nM for the first, over 1000 nM for the second.

CN1CC(c2nnc([C@]34CN(c5ccc(C(F)(F)F)c6ncccc56)C[C@@]3(C(F)(F)F)C4)o2)C1 [Compound 4, 2-(1-methylazetidin-3-yl)-5-((1S,5R)-5-(trifluoromethyl)-3-(8-(trifluoromethyl)quinolin-5-yl)-3-azabicyclo[3.1.0]hexan-1-yl)-1,3,4-oxadiazole] and CN1CC(Cc2nnc([C@]34CN(c5ccc(C(F)(F)F)c6ncccc56)C[C@@]3(C(F)(F)F)C4)o2)C1 [Compound 95, 2-((1-methylazetidin-3-yl)methyl)-5-((1S,5R)-5-(trifluoromethyl)-3-(8-(trifluoromethyl)quinolin-5-yl)-3-azabicyclo[3.1.0]hexan-1-yl)-1,3,4-oxadiazole] cannot be ordered by IC50: over 1000 nM for the first, over 1000 nM for the second.

CN1CCC(c2nnc([C@]34CN(c5ccc(C#N)c6ncccc56)C[C@@]3(C(F)(F)F)C4)n2C)CC1 [Compound 5, 5-((1S,5R)-1-(4-methyl-5-(1-methylpiperidin-4-yl)-4H-1,2,4-triazol-3-yl)-5-(trifluoromethyl)-3-azabicyclo[3.1.0]hexan-3-yl)quinoline-8-carbonitrile] and CN1CCC(Oc2nnc([C@]34CN(c5ccc(C#N)c6ncccc56)C[C@@]3(C(F)(F)F)C4)o2)CC1 [Compound 15, 5-((1S,5R)-1-(5-((1-methylpiperidin-4-yl)oxy)-1,3,4-oxadiazol-2-yl)-5-(trifluoromethyl)-3-azabicyclo[3.1.0]hexan-3-yl)quinoline-8-carbonitrile] cannot be ordered by IC50: over 1000 nM for the first, over 1000 nM for the second.

FC(F)(F)c1ccc(N2C[C@]3(c4nnc(C5(F)CCNCC5)o4)C[C@]3(C(F)(F)F)C2)c2cccnc12 [Compound 3, 2-(4-fluoropiperidin-4-yl)-5-((1S,5R)-5-(trifluoromethyl)-3-(8-(trifluoromethyl)quinolin-5-yl)-3-azabicyclo[3.1.0]hexan-1-yl)-1,3,4-oxadiazole] and FC(F)(F)c1ccc(N2C[C@]3(c4nnc(C5CCNCC5)o4)C[C@]3(C(F)(F)F)C2)c2cccnc12 [Compound 75, 2-(piperidin-4-yl)-5-((1S,5R)-5-(trifluoromethyl)-3-(8-(trifluoromethyl)quinolin-5-yl)-3-azabicyclo[3.1.0]hexan-1-yl)-1,3,4-oxadiazole] cannot be ordered by IC50: over 1000 nM for the first, over 1000 nM for the second.

NC(=O)CN1CCC(c2nnc([C@]34CN(c5ccc(C(F)(F)F)c6ncccc56)C[C@@]3(C(F)(F)F)C4)o2)CC1 [Compound 77, 2-(4-(5-((1S,5R)-5-(trifluoromethyl)-3-(8-(trifluoromethyl)quinolin-5-yl)-3-azabicyclo[3.1.0]hexan-1-yl)-1,3,4-oxadiazol-2-yl)piperidin-1-yl)acetamide] and CN1CCC(C)(c2nnc([C@]34CN(c5ccc(C#N)c6ncccc56)C[C@@]3(C(F)(F)F)C4)o2)CC1 [Compound 8, 5-((1S,5R)-1-(5-(1,4-dimethylpiperidin-4-yl)-1,3,4-oxadiazol-2-yl)-5-(trifluoromethyl)-3-azabicyclo[3.1.0]hexan-3-yl)quinoline-8-carbonitrile] cannot be ordered by IC50: over 10000 nM for the first, over 1000 nM for the second.

N#Cc1ccc(N2C[C@]3(c4nnc(C5(F)CCNC5)o4)C[C@]3(C(F)(F)F)C2)c2cccnc12 (stereo partly drawn) [Compound 46, 5-((1S,5R)-1-(5-(3-fluoropyrrolidin-3-yl)-1,3,4-oxadiazol-2-yl)-5-(trifluoromethyl)-3-azabicyclo[3.1.0]hexan-3-yl)quinoline-8-carbonitrile] and N#Cc1ccc(N2C[C@]3(c4nnc(CC5CNC5)o4)C[C@]3(C(F)(F)F)C2)c2cccnc12 [Compound 35, 5-((1S,5R)-1-(5-(azetidin-3-ylmethyl)-1,3,4-oxadiazol-2-yl)-5-(trifluoromethyl)-3-azabicyclo[3.1.0]hexan-3-yl)quinoline-8-carbonitrile] cannot be ordered by IC50: over 10000 nM for the first, over 1000 nM for the second.

CN1CCC(c2nnc([C@]34CN(c5c(Br)cc(C#N)n6ncc(Br)c56)C[C@@]3(C(F)(F)F)C4)o2)CC1 [Compound 85, 3,5-dibromo-4-((1S,5R)-1-(5-(1-methylpiperidin-4-yl)-1,3,4-oxadiazol-2-yl)-5-(trifluoromethyl)-3-azabicyclo[3.1.0]hexan-3-yl)pyrazolo[1,5-a]pyridine-7-carbonitrile] and CN1CCC(c2nnc([C@]34CN(c5c(Br)cc(C#N)n6nccc56)C[C@@]3(C(F)(F)F)C4)o2)CC1 [Compound 86, 5-bromo-4-((1S,5R)-1-(5-(1-methylpiperidin-4-yl)-1,3,4-oxadiazol-2-yl)-5-(trifluoromethyl)-3-azabicyclo[3.1.0]hexan-3-yl)pyrazolo[1,5-a]pyridine-7-carbonitrile] cannot be ordered by IC50: over 1000 nM for the first, over 1000 nM for the second.

Compared with CN1CCC(c2nnc([C@]34CN(c5ccc(C#N)n6ncc(Br)c56)C[C@@]3(C(F)(F)F)C4)o2)CC1 [Compound 83, 3-bromo-4-((1S,5R)-1-(5-(1-methylpiperidin-4-yl)-1,3,4-oxadiazol-2-yl)-5-(trifluoromethyl)-3-azabicyclo[3.1.0]hexan-3-yl)pyrazolo[1,5-a]pyridine-7-carbonitrile], CN(C)CC#Cc1nnc([C@]23CN(c4ccc(C#N)c5ncccc45)C[C@@]2(C(F)(F)F)C3)o1 [Compound 25, 5-((1S,5R)-1-(5-(3-(dimethylamino)prop-1-yn-1-yl)-1,3,4-oxadiazol-2-yl)-5-(trifluoromethyl)-3-azabicyclo[3.1.0]hexan-3-yl)quinoline-8-carbonitrile] is lower in IC50: over 1000 nM for the first, under 1000 nM for the second. The second is the more potent here.

CC1(C)CC(Cc2nnc([C@]34CN(c5ccc(C#N)c6ncccc56)C[C@@]3(C(F)(F)F)C4)o2)CC(C)(C)N1 [Compound 26, 5-((1S,5R)-1-(5-((2,2,6,6-tetramethylpiperidin-4-yl)methyl)-1,3,4-oxadiazol-2-yl)-5-(trifluoromethyl)-3-azabicyclo[3.1.0]hexan-3-yl)quinoline-8-carbonitrile] and CN(C)CCc1nnc([C@]23CN(c4ccc(C#N)c5ncccc45)C[C@@]2(C(F)(F)F)C3)o1 [Compound 51, 5-((1S,5R)-1-(5-(2-(dimethylamino)ethyl)-1,3,4-oxadiazol-2-yl)-5-(trifluoromethyl)-3-azabicyclo[3.1.0]hexan-3-yl)quinoline-8-carbonitrile] cannot be ordered by IC50: over 1000 nM for the first, over 10000 nM for the second.
